Results reported in patent US4690926A, “Boxazomycin A and B, new antibiotics containing benzoxazole nucleus” (Bristol-Myers Company, priority 1986, dated 1987).
≈ marks a conversion by molar mass, not a printed value.

These compounds were tested on S. epidermidis A22547. Conditions: Staphylococcus epidermidis, Nutrient agar (Eiken), kanamycin-resistant.
Format: cell-based

| Compound | MIC |
| --- | --- |
| Cc1cc(O)c(C(N)=O)c2nc(-c3nc(CO)ncc3O)oc12 [Boxazomycin A] | 0.4 µg/mL (≈ 1.26 µM) |
| Cc1ncc(O)c(-c2nc3c(C(N)=O)c(O)cc(C)c3o2)n1 [Boxazomycin B] | 0.2 µg/mL (≈ 0.666 µM) |
| NC[C@H]1O[C@H](O[C@H]2[C@H](O)[C@@H](O[C@H]3O[C@H](CO)[C@@H](O)[C@H](N)[C@H]3O)[C@H](N)C[C@@H]2N)[C@H](O)[C@@H](O)[C@@H]1O [Kanamycin, kanamycin, reference compound] | 25 µg/mL (≈ 51.6 µM) |
